For one data set, the target named is T1, PRKACA (Homo sapiens, UniProt P17612).
T1 construct: purchased Millipore 539482
The data set can be described thus: PRKACA assay at Km (EZ Reader 2 electrophoretic mobility shift). It counts as biochemical. Particulars: 5 μM ATP (Km), 1 μM Kemptide, 90 minutes at 25 C; read-out: Enz PRKACA IC50. A digest of the protocol: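 PRKACA (0.18 nM) was incubated with 1 μM 5-FAM-Kemptide and 5 μM ATP for 90 min at 25 °C in HEPES pH 7.5 buffer with 10 mM MgCl2, 1% DMSO, then stopped with EDTA. Substrate and product were separated by microfluidic mobility shift, and IC50 was taken from a 4-parameter fit of normalised inhibition.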
A general note: Mobility shift assays separate free from complexed probe on a gel.

Data set [1] relates to PKA (phosphorylation of VASP on Serine 157). Briefly: Cellular potency assay: P-VASP(157) HTRF in Forskolin-stimulated Huh7 cells. It counts as cell-based. The settings on record: Homo sapiens, Huh-7, 4 hours compound, 5 μM Forskolin 30 minutes, read-out: Phos VASP(S157) IC50. The method, boiled down:
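Huh7 cells in serum-free DMEM were pretreated with compound for 4 h at 37 °C (0.24% DMSO final), then stimulated with 5 μM forskolin for 30 min. Lysates were assayed for phospho-VASP Ser157 by HTRF sandwich immunoassay, read at 665/620 nm.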
On the technique in general: Time-resolved FRET reads energy transfer from a long-lived donor to a nearby acceptor.

The test system of data set [2] is FL-HCC (LI5132) PDX tumors. Briefly: Efficacy study in FL-HCC (LI5132) patient-derived xenograft (PDX) model. It counts as in vivo. The settings on record: oral delivery; compound 144: 30 mg/kg PO QDX34; FIG. 3.
Source text: Efficacy: To establish the PDX model, 72 mice were inoculated with patient tumor cells to yield at least 36 mice with tumors of the required size. 18 of these mice were selected for the study.
In the next data set the target is T2, PRKACA-DNAJB1 (Homo sapiens, UniProt P17612).
T2 construct: DNAJB1 (fusion partner, P25685); the other entry of the earlier key: DNAJB1 (P25685, DnaJ homolog subfamily B member 1)
Briefly: PRKACA-DNAJB1 enzyme assay (EZ Reader 2 electrophoretic mobility shift). Format: biochemical. The settings on record: read-out: Enz PRKACA-DNAJB1 IC50. Here is the method:
A Perkin Elmer electrophoretic mobility shift platform (the EZ Reader 2) was used to assess the activity of test compounds against a kinase of interest. Fluorescently labeled substrate peptide was incubated in the presence of kinase, ATP, and the test compound, so that a portion of the peptide was phosphorylated by the enzyme. At the end of the reaction, the mix of phosphorylated (product) and non-phosphorylated (substrate) peptide containing solutions was passed through the microfluidic system of the Perkin Elmer EZ Reader 2 under an applied potential difference. The presence of the phosphate group on the product peptide provided a difference in mass and charge between those of the substrate peptide, resulting in a separation of the substrate and product pools in the sample. As the stopped solutions passed under the instrument's LED light the phosphorylated and un-phosphorylated fluorophore bound peptides were detected and resolved as separate peaks. The ratio between these peaks therefore reflected the test compound's impact on the kinase at that concentration in that well under those conditions.

Where only a bound is given, the exact number is not on record here.

In general, IC50 refers to the concentration at which inhibition is half-maximal.

For `O=C(N[C@@H]1c2ccccc2C[C@H]1N1CCCC1)c1ccc(-c2ccnc3[nH]ccc23)nc1` [Compound 144, N-[(1R,2R)-2-(Pyrrolidin-1-yl)-2,3-dihydro-1H-inden-1-yl]-6-{1H-pyrrolo[2,3-b]pyridin-4-yl}pyridine-3-carboxamide], the half-inhibitory concentration (IC50) on PRKACA is not above 1 nM. Further, the IC50 in data set [1] was less than 50 nM. In data set [2], the “FLC tumor growth inhibition” value was “significant FLC tumor growth inhibition” and the “tolerability of the dose” value is on record as “tolerated”.

Turning to `Cc1c[nH]c2nccc(-c3ccc(C(=O)N[C@@H]4c5c(F)cc(C(F)F)cc5C[C@@H]4O)cn3)c12` [Compound 162, N-[(1R,2S)-5-(Difluoromethyl)-7-fluoro-2-hydroxy-2,3-dihydro-1H-inden-1-yl]-6-{3-methyl-1H-pyrrolo[2,3-b]pyridin-4-yl}pyridine-3-carboxamide], the half-maximal inhibitory concentration (IC50) on PRKACA was not above 1 nM; at PRKACA-DNAJB1 it was not above 1 nM; in data set [1] it was less than 50 nM. The “FLC tumor growth inhibition” value in data set [2] is “significant FLC tumor growth inhibition”. Besides, the “tolerability of the dose” value in data set [2] is on record as “tolerated”.

In the case of `O=C(N[C@@H]1c2c(Cl)cccc2C[C@H]1N1CC[C@@H](O)C1)c1ccc(-c2ccnc3[nH]ccc23)cn1` [Compound 176], the IC50 at PRKACA was not above 1 nM; at PRKACA-DNAJB1, not above 1 nM; in data set [1] it was less than 50 nM.

For `C[C@]1(O)CCN([C@@H]2Cc3cccc(Cl)c3[C@H]2NC(=O)c2ccc(-c3ccnc4[nH]ccc34)nc2)C1` [Compound 180], the concentration for half-maximal inhibition (IC50) at PRKACA was not above 1 nM; on PRKACA-DNAJB1 it was not above 1 nM; in data set [1], less than 50 nM.

On to `O=C(N[C@@H]1c2c(Cl)cccc2C[C@H]1N1C[C@H](O)[C@@H](F)C1)c1ccc(-c2ccnc3[nH]ccc23)nc1` [Compound 185], for which the IC50 at PRKACA is not above 1 nM; at PRKACA-DNAJB1 it was not above 1 nM; in data set [1] it was less than 50 nM.

Consider `O=C(N[C@@H]1c2c(Cl)cccc2C[C@H]1N1C[C@@H](F)[C@@H](O)C1)c1ccc(-c2ccnc3[nH]ccc23)nc1` [Compound 186], for which the results for the IC50 (on PRKACA; on PRKACA-DNAJB1; in data set [1]) were not above 1 nM, 1.01 to 5 nM and less than 50 nM, respectively.

`CO[C@@H]1CCN([C@@H]2Cc3cccc(Cl)c3[C@H]2NC(=O)c2ccc(-c3ccnc4[nH]cc(C)c34)nc2)C1` [Compound 188]: the IC50 at PRKACA was not above 1 nM; at PRKACA-DNAJB1, 1.01 to 5 nM; in data set [1], 0.01 to 100 nM.

With `CO[C@@H]1CCN([C@@H]2Cc3cccc(Cl)c3[C@H]2NC(=O)c2ccc(-c3ccnc4[nH]cc(F)c34)nc2)C1` [Compound 189], the half-inhibitory concentration (IC50) was not above 1 nM at PRKACA, not above 1 nM at PRKACA-DNAJB1 and 0.01 to 100 nM in data set [1].

Turning to `O=C(N[C@@H]1c2c(F)cc(C(F)F)cc2C[C@H]1N1CC[C@H](F)C1)c1ccc(-c2ccnc3[nH]ccc23)nc1` [Compound 190], the results for the IC50 (at PRKACA; on PRKACA-DNAJB1; in data set [1]) were not above 1 nM, not above 1 nM and less than 50 nM, respectively.

Take `CN(C)C(=O)[C@@H]1CCCN1[C@@H]1Cc2cccc(Cl)c2[C@H]1NC(=O)c1ccc(-c2ccnc3[nH]ccc23)nc1` [Compound 191]: the 50% inhibitory concentration (IC50) at PRKACA was not above 1 nM; on PRKACA-DNAJB1, not above 1 nM; in data set [1] it was less than 50 nM.

Values taken from US12583856B2, “Inhibitors of protein kinase A” (Blueprint Medicines Corporation, priority 2021, dated 2026).
